According to patent US20100069382A1, “Agent for prophylaxis or treatment of alcohol dependence or drug dependence” (priority 2006, published 2010):
Where two headings read alike, the source gives them in different places.

How the values were obtained:
[1] = existing medicines, known profile, cited from earlier work
msP rats [2] = test: Study on dependence elicitation (conditioned place preference) in msP rats; type: in vivo, rat
Experimental: A two-compartment box divided by guillotine door was used. […] For the following 6 days, the rats were treated on alternate days with three Compound A-pairing administrations (0.3 and 1.0 mg/kg/body weight, p.o.) and three vehicle-pairing administrations immediately before being placed, for 1 hour, into the assigned chamber with guillotine door close for drug-compartment discrimination (conditioning). The day after the last conditioning session, the rats were placed, for 15 min, in the box with door open. The time spent in the drug paired compartment was measured.

msP rats [3] = test: Yohimbine-induced reinstatement of alcohol-seeking behavior in msP rats; type: in vivo, rat
Text: Male genetically selected alcohol-preferring rats known as msP rats were used in this study (Addiction Biol. 11, 339-355, 2006). […] After acquisition of a stable baseline of 10% ethanol self-administration, rats were subjected to 30-min extinction sessions for 15 consecutive days. Extinction sessions were identical to 10% ethanol self-administration sessions, however alcohol was no longer available. Beginning on extinction day 10, rats were divided into three groups with similar baseline levels of responding for 10% ethanol. For six consecutive days, 1 hour before the self-administration session and 8 hours later, each group of rats were orally given vehicle, 0.3 mg/kg of Compound A or 1.0 mg/kg of Compound A. After the extinction sessions, rats were given yohimbine (1,25 mg/kg, i.p.) 35 min before the test sessions. The 30-min reinstatement test was conducted under extinction condition.
Yohimbine was used as stressor for this study, because yohimbine is known to produce stress and anxiety-like states in both humans and non-humans (Bremner et al, 1996; Charney et al 1983; Holmberg et al 1963).

Wistar rats = test: Effect on alcohol withdrawal symptoms in Wistar rats; type: in vivo, rat
Experimental: Male Wistar rats were used in this study. According to the protocol shown in FIG. 1, rats were orally given 12-15 g/kg/body weight of ethanol in 24 hours on day 1 to day 2 and 9-10 g/kg/body weight of ethanol in 12 hours on day 3 to day 5. Compound A was administered p.o. at doses of 0.3 and 1 mg/kg/body weight twice after 2 and 7 hours of last ethanol administration. Four types of alcohol withdrawal symptoms such as vocalization, ventromedial limb retraction, tail rigidity, tail tremors were observed and scored with following 3 rating scales: mild=0, moderate=1, severe=2.

msP rats [4] = test: Effect on alcohol intake in msP rats; type: in vivo, rat
Experimental: Male genetically selected alcohol-preferring rats known as Marchigian Sardinian alcohol-preferring (msP) rats were used in this study (Addiction Biol. 11, 339-355, 2006). […] Compound A at doses of 0.3 and 1 mg/kg/body weight was orally administered twice for 9 days at 1 hour before and 8 hours after onset of dark period.

[5] = Economidou et al., Peptides 27, 3299-3306, 2006, cited from earlier work
[6] = 0.3 and 1 mg/kg/body weight p.o. twice, 2 and 7 hours after last ethanol, observed 8 to 24 hours after last ethanol administration, FIG. 2

In the case of CC(=O)NCCCS(=O)(=O)O [Acamprosate], the “Ameliorative effect on alcohol withdrawal symptoms” value (“Ameliorative effect” below) [1] is given as “none”, the Presence/absence of dependence [1] is given as “absent” and the “Suppressive effect on excessive alcohol intake” value [1] is given as “yes”. The “Suppressive effect on stress-induced reinstatement” value [1] was “none”, the “Ameliorative effect” value ([1]; listed as acamprosate) was “ineffective” and the “Suppressive effect on excessive alcohol intake” value ([1]; listed as acamprosate) was “effective”. For the same compound, the “Suppressive effect on stress-induced reinstatement” value ([1]; listed as acamprosate) was “ineffective”.
In the case of Clc1cccc(Cl)c1N=C1NCCN1 [Clonidine], the “Ameliorative effect” value [1] is listed as “yes”, the Presence/absence of dependence [1] is listed as “absent” and the “Suppressive effect on excessive alcohol intake” value [1] is listed as “none”. For the same compound, the “Suppressive effect on stress-induced reinstatement” value [1] was “none”, the “Ameliorative effect” value ([1]; listed as clonidine) was “effective” and the “Suppressive effect on excessive alcohol intake” value ([1]; listed as clonidine) was “ineffective”. For the same compound, the “Suppressive effect on stress-induced reinstatement” value ([1]; listed as clonidine) was “ineffective”.
For CNC(=O)Cn1c(=O)n(C2CCN([C@@H]3Cc4cccc5cccc3c45)CC2)c2ccccc21 [Compound A, (R)-2-{3-[1-(acenaphthen-1-yl)piperidin-4-yl]-2,3-dihydro-2-oxo-benzimidazol-1-yl}-N-methylacetamide], the “place preference (time spent in drug paired compartment)” value (msP rats [2]; 0.3 and 1.0 mg/kg/body weight p.o., three pairings, FIG. 8) was “induced place preference at neither 0.3 nor 1 mg/kg/body weight”, the Presence/absence of dependence (msP rats [2]; Table 1 summary, Compound A) was “absent” and the “dependence elicitation by the compound itself” value (msP rats [2]; conclusion from conditioned place preference at 0.3 and 1 mg/kg/body weight) was “does not elicit dependence”. The “yohimbine stress-induced reinstatement of alcohol-seeking behavior” value (msP rats [3]; 1 mg/kg orally twice daily for six days, yohimbine 1,25 mg/kg i.p., FIG. 6) was “significantly attenuated”, the “Suppressive effect on stress-induced reinstatement” value (msP rats [3]; Table 1 summary, Compound A) was “yes” and the “score of tail rigidity (alcohol withdrawal symptom)” value (Wistar rats; [6]) was “significantly and dose-dependently decreased”. The “score of tail tremors (alcohol withdrawal symptom)” value (Wistar rats; [6]) was “significantly and dose-dependently decreased”, the “score of ventromedial limb retraction (alcohol withdrawal symptom)” value (Wistar rats; [6]) was “significantly and dose-dependently decreased” and the “Ameliorative effect” value (Wistar rats; Table 1 summary, Compound A) was “yes”. The ethanol consumption (msP rats [4]; 0.3 and 1 mg/kg/body weight orally twice daily for 9 days, free choice water / 10% ethanol, FIG. 4) was “significantly and dose-dependently decreased”, the “Suppressive effect on excessive alcohol intake” value (msP rats [4]; Table 1 summary, Compound A) was “yes” and the “duration of significant decrease of ethanol consumption after withdrawal of Compound A” value (msP rats [4]; after 9 days of oral dosing at 0.3 and 1 mg/kg/body weight, FIG. 4) was 9 days.
For CN1C(=O)CN=C(c2ccccc2)c2cc(Cl)ccc21 [Diazepam], the “Ameliorative effect” value [1] is listed as “yes”, the Presence/absence of dependence [1] is listed as “present” and the “Suppressive effect on excessive alcohol intake” value [1] is listed as “none”. For the same compound, the “Suppressive effect on stress-induced reinstatement” value [1] was “none” and the Presence/absence of dependence ([1]; listed as diazepam) was “induce dependence”.
In the case of O=C1CC[C@@]2(O)[C@H]3Cc4ccc(O)c5c4[C@@]2(CCN3CC2CC2)[C@H]1O5 [Naltrexone], the “Ameliorative effect” value [1] is listed as “none”, the Presence/absence of dependence [1] is listed as “absent” and the “Suppressive effect on excessive alcohol intake” value [1] is listed as “yes”. For the same compound, the “Suppressive effect on stress-induced reinstatement” value [1] was “none”, the “Ameliorative effect” value ([1]; listed as naltrexone) was “ineffective” and the “Suppressive effect on excessive alcohol intake” value ([1]; listed as naltrexone) was “effective”. The “Suppressive effect on stress-induced reinstatement” value ([1]; listed as naltrexone) was “ineffective”.
For O=C1NCN(c2ccccc2)C12CCN([C@@H]1CC[C@H]3CCCc4cccc1c43)CC2 [Ro64-6198], the alcohol drinking [5] is listed as “failed to decrease alcohol drinking” and the “alcohol drinking at high dose” value ([5]; high dose) is listed as “increase”.
